The values that follow come from patent publication US7314968B2, “Transgenic fish and β-catenin signaling pathway model” (University of Washington, priority 2002, dated 2008).

The test system of series [1] is hdl. In words: hdl morpholino injection into one-cell TOPdGFP transgenic zebrafish embryos, in situ hybridization and phenotype. The format is in vivo. How it is done: (§1) In Situ Hybridizations: In situ hybridization was performed as described previously (Oxtoby and Jowett, 1993). The GFP probe was made by antisense transcription of TOPdGFP, using a T7 promoter present in the construct. The Probe for hdl was made from a full-length clone isolated in our laboratory, subcloned into pCS2+. Probes for pax2.1 (Krauss et al., 1991), tbx6 (Hug et al., 1997), and lef1 (Dorsky et al., 1999) were made as described previously. Images were taken with a Kodak DC290 digital camera and processed with Adobe Photoshop 5.0.
(§2) Morpholino Injections: Morpholino antisense oligonucleotides targeted to lef1 and hdl were obtained from Gene Tools (Corvallis, Oreg.). lef1 MO sequence: 5′- […]-3′ (SE ID NO:3); hdl MO sequence: 5′- […]-3(SEQ ID NO:4).
(§3) Approximately 1 ng of the morpholinos was injected into one-cell homozygous transgenic embryos that were fixed for in situ hybrid-ization at appropriate stages. Injections of control morpholinos produced no effect on TOPdGFP expression.

For series [2], the system named is lef1. In words: lef1 morpholino injection into one-cell TOPdGFP transgenic zebrafish embryos, in situ hybridization and phenotype. It counts as in vivo. How it is done:
as §1, §2, §3

As to “hdl morpholino: Morpholino antisense oligonucleotide targeted to zebrafish hdl, 5′- CTCCGTTTAACTGAGGCATGTTGGC-3 (SEQ ID NO:4), from Gene Tools (all phosphorodiamidate morpholino (PMO))”, in series [1] (bud stage), the “expression of midbrain marker pax2” value is reported as “anterior expansion”; the “expression of ventrolateral mesoderm markers spt and tbx6” value is “no effect”; the “posterior GFP expression” value is recorded as “no effect”. Moreover, the embryo phenotype result in series [1] (injection at the one-cell stage, 36 hpf) is on record as “phenotype indistinguishable from hdl mutant embryos”. Moreover, the “anterior TOPdGFP expression” value in series [1] (shield stage or bud stage) is “does not expand”.
For the substance “lef1 morpholino: Morpholino antisense oligonucleotide targeted to zebrafish lef1, 5′- CTCCTCCACCTGACAACTGCGGCAT-3′ (SEQ ID NO:3), from Gene Tools (all phosphorodiamidate morpholino (PMO))”, in series [2] (36 hpf), the embryo phenotype result was “tail truncations and loss of paraxial mesoderm, but normal head development”. Also, in series [2] (bud stage), the “TOPdGFP expression in the embryo” value is reported as “striking decrease”; the “expression of spt and tbx6” value is on record as “decreased expression”; the pax2 expression entry is on record as “no effect”.
